Test results reported in PMC12040969, “Design, synthesis, in silico studies, and apoptotic antiproliferative activity of novel thiazole-2-acetamide derivatives as tubulin polymerization inhibitors” (Frontiers in Chemistry, 2025).

Legend:
[1] = Cell viability assay (MTT), normal cells; format: cell-based; details: human, MCF-10A normal mammary gland epithelial cells, four-day incubation
prostatic - PC-3 = test: Antiproliferative assay (MTT) PC-3
breast - MCF-7 = test: Antiproliferative assay (MTT) MCF-7
colon - HCT-116 = test: Antiproliferative assay (MTT) HCT-116
- MDAMB-231 = test: Antiproliferative assay (MTT) MDAMB-231
pancreatic - MDAMB-231 = test: Antiproliferative assay (MTT) MDAMB-231; details: read-out: Antiproliferative activity IC50 ± SEM (µM) MDAMB-231; MDAMB-231, MTT
[2] = tested on: four human cancer cell lines (HCT-116, PC-3, MCF-7, MDAMB-231); test: Antiproliferative assay, mean of four cell lines (GI50)
tubulin = test: Tubulin polymerization inhibition assay (Cytoskeleton kit); details: for Tub %inh: 30 min, YB-EGY run; for Tub K.Activity: EC = 120, YB-EGY run;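 on all read-outs here: Cell-free tubulin polymerization read by fluorescent reporter enhancement over a 30 min reaction, with the compound-free kit control taken as 100% activity and inhibition relative to it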

Compound: Cc1nc(SCC(=O)Nc2nccs2)sc1C(=O)/C=C/c1ccc(F)cc1 [Compound 13c, (E)-2-((5-(3-(4-fluorophenyl)acryloyl)-4-methylthiazol-2-yl)thio)-N-(thiazol-2-yl)acetamide]
- viability at 96 h, 50 µM [1]: 86%
- Average of Relative viability of cells (%) (prostatic - PC-3; PC-3, 1.56 µM): 100%
- Average of Relative viability of cells (%) (prostatic - PC-3; PC-3, 3.125 µM): 99.1%
- Average of Relative viability of cells (%) (prostatic - PC-3; PC-3, 6.25 µM): 87.9%
- Average of Relative viability of cells (%) (prostatic - PC-3; PC-3, 12.5 µM): 67.7%
- Average of Relative viability of cells (%) (prostatic - PC-3; PC-3, 25 µM): 54.6%
- Average of Relative viability of cells (%) (prostatic - PC-3; PC-3, 50 µM): 42.1%
- Average of Relative viability of cells (%) (prostatic - PC-3; PC-3, 100 µM): 28.8%
- IC50 (prostatic - PC-3; read-out: Antiproliferative activity IC50 ± SEM (µM) PC-3, PC-3, MTT): 34 ± 2.1 µM
- Average of Relative viability of cells (%) (breast - MCF-7; MCF-7, 1.56 µM): 100%
- Average of Relative viability of cells (%) (breast - MCF-7; MCF-7, 3.125 µM): 96.3%
- Average of Relative viability of cells (%) (breast - MCF-7; MCF-7, 6.25 µM): 83.0%
- Average of Relative viability of cells (%) (breast - MCF-7; MCF-7, 12.5 µM): 68.1%
- Average of Relative viability of cells (%) (breast - MCF-7; MCF-7, 25 µM): 51.6%
- Average of Relative viability of cells (%) (breast - MCF-7; MCF-7, 50 µM): 36.7%
- Average of Relative viability of cells (%) (breast - MCF-7; MCF-7, 100 µM): 21.7%
- IC50 (breast - MCF-7; read-out: Antiproliferative activity IC50 ± SEM (µM) MCF-7, MCF-7, MTT): 28 ± 1.8 µM
- Average of Relative viability of cells (%) (colon - HCT-116; HCT-116, 1.56 µM): 100%
- Average of Relative viability of cells (%) (colon - HCT-116; HCT-116, 3.125 µM): 92.6%
- Average of Relative viability of cells (%) (colon - HCT-116; HCT-116, 6.25 µM): 73.1%
- Average of Relative viability of cells (%) (colon - HCT-116; HCT-116, 12.5 µM): 51.3%
- Average of Relative viability of cells (%) (colon - HCT-116; HCT-116, 25 µM): 42.2%
- Average of Relative viability of cells (%) (colon - HCT-116; HCT-116, 50 µM): 29.9%
- Average of Relative viability of cells (%) (colon - HCT-116; HCT-116, 100 µM): 16.1%
- IC50 (colon - HCT-116; read-out: Antiproliferative activity IC50 ± SEM (µM) HCT-116, HCT-116, MTT): 18 ± 1.4 µM
- Average of Relative viability of cells (%) (- MDAMB-231; MDAMB-231, 1.56 µM): 100%
- Average of Relative viability of cells (%) (- MDAMB-231; MDAMB-231, 3.125 µM): 93.3%
- Average of Relative viability of cells (%) (- MDAMB-231; MDAMB-231, 6.25 µM): 71.6%
- Average of Relative viability of cells (%) (- MDAMB-231; MDAMB-231, 12.5 µM): 54.8%
- Average of Relative viability of cells (%) (- MDAMB-231; MDAMB-231, 25 µM): 50.1%
- Average of Relative viability of cells (%) (- MDAMB-231; MDAMB-231, 50 µM): 38.9%
- Average of Relative viability of cells (%) (- MDAMB-231; MDAMB-231, 100 µM): 19.6%
- IC50 (pancreatic - MDAMB-231): 23 ± 1.7 µM
- Reduced potency compared to doxorubicin (GI50) ([2]; GI50 ratio): at least 2.5 fold
- Reduced potency compared to sorafenib (GI50) ([2]; GI50 ratio): ≥ 1.5 fold
- IC50 ([2]; Homo sapiens, read-out: GI50 (average IC50)): 26 µM
- Tub %inh (tubulin; conc 0.1 (unit not given)): 6.12%
- Tub K.Activity (tubulin; conc 0.1 (unit not given)): 112.66
- Tub %inh (tubulin; conc 1 (unit not given)): 27.4%
- Tub K.Activity (tubulin; conc 1 (unit not given)): 87.115
- Tub %inh (tubulin; conc 10 (unit not given)): 48.8%
- Tub K.Activity (tubulin; conc 10 (unit not given)): 61.436
- Tub %inh (tubulin; conc 50 (unit not given)): 71.2%
- Tub K.Activity (tubulin; conc 50 (unit not given)): 34.549
- Tub %inh (tubulin; conc 100 (unit not given)): 90.8%
- Tub K.Activity (tubulin; conc 100 (unit not given)): 10.995
- IC50 (tubulin; read-out: Tubulin inhibition IC50 ± SEM, triplicate for each tested concentration): 6.05 ± 0.18 µM
